Counter-ions that a name gives are not always drawn.
Tested on: modified version of the GPR119 receptor (94% identity to human receptor)
Assay: cAMP production assay (LANCE cAMP kit, TR-FRET) in HEK-293 cells
Type: cell-based
Conditions: for cAMP production in HEK-293 cells: HEK-293 cells stably expressing modified GPR119, test compounds 0.2 nM to 10 μM, one-hour incubation; for Fold over baseline: increase in cAMP relative to basal levels, agonist activity if 1.5-fold or greater
How it was run: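 Doxycycline-induced HEK-293 cells expressing modified GPR119 exposed to compounds (0.2 nM to 10 μM, 0.5% DMSO) for one hour at ambient temperature in HBSS with HEPES and BSA. cAMP measured by TR-FRET competition and interpolated from a standard curve; agonism defined as ≥1.5-fold over basal.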

## CCS(=O)(=O)c1ccc(OC2CCN(C3CCN(c4nc(-c5ccccc5)ns4)CC3)C2=O)c(F)c1 (stereo not shown) [Example 67, 3-(4-(ethylsulfonyl)-2-fluorophenoxy)-1-(1-(3-phenyl-1,2,4-thiadiazol-5-yl)piperidin-4-yl)pyrrolidin-2-one]
  cAMP production in HEK-293 cells: 14.0 nmol
  Fold over baseline: 2.3

## CC(C)c1nsc(N2CCC(N3CC[C@H](Nc4ccc(Br)cn4)C3=O)CC2)n1 [Example 15, (S)-3-(5-Bromopyridin-2-ylamino)-1-(1-(3-isopropyl-1,2,4-thiadiazol-5-yl)piperidin-4-yl)pyrrolidin-2-one]
  cAMP production in HEK-293 cells: 11.4 nmol
  Fold over baseline: 2.7

## CS(=O)(=O)c1ccc(N[C@H]2CCN(C3CCN(c4nc(-c5ccccc5)ns4)CC3)C2=O)c(F)c1 [Example 24, (S)-3-(2-fluoro-4-(methylsulfonyl)phenylamino)-1-(1-(3-phenyl-1,2,4-thiadiazol-5-yl)piperidin-4-yl)pyrrolidin-2-one]
  cAMP production in HEK-293 cells: 9.7 nmol
  Fold over baseline: 2.6

## CS(=O)(=O)c1cc(F)c(OC2CCN(C3CCN(c4nc(-c5ccccc5)ns4)CC3)C2=O)cc1F (stereo not shown) [Example 48, 3-(2,5-difluoro-4-(methylsulfonyl)phenoxy)-1-(1-(3-phenyl-1,2,4-thiadiazol-5-yl)piperidin-4-yl)pyrrolidin-2-one trifluoroacetate]
  cAMP production in HEK-293 cells: 20.5 nmol
  Fold over baseline: 3.3

## Cn1cc(-c2nsc(N3CCC(N4CC[C@H](Oc5ccc(S(C)(=O)=O)cc5F)C4=O)CC3)n2)cn1 [Example 73, (S)-3-(2-fluoro-4-(methylsulfonyl)phenoxy)-1-(1-(3-(1-methyl-1H-pyrazol-4-yl)-1,2,4-thiadiazol-5-yl)piperidin-4-yl)pyrrolidin-2-one]
  cAMP production in HEK-293 cells: 6.2 nmol
  Fold over baseline: 2.2

## CCS(=O)(=O)c1ccc(OC2CCN(C3CCN(c4nc(C(C)C)ns4)CC3)C2=O)c(F)c1 (stereo not shown) [Example 61, 3-(4-(ethylsulfonyl)-2-fluorophenoxy)-1-(1-(3-isopropyl-1,2,4-thiadiazol-5-yl)piperidin-4-yl)pyrrolidin-2-one]
  cAMP production in HEK-293 cells: 23.5 nmol
  Fold over baseline: 3.5

## CC(C)c1nsc(N2CCC(N3CC[C@H](Oc4ccc(S(C)(=O)=O)c(Cl)c4)C3=O)CC2)n1 [Example 54, (S)-3-(3-chloro-4-(methylsulfonyl)phenoxy)-1-(1-(3-isopropyl-1,2,4-thiadiazol-5-yl)piperidin-4-yl)pyrrolidin-2-one]
  cAMP production in HEK-293 cells: 17.2 nmol
  Fold over baseline: 3.6

## CC(C)c1nsc(N2CCC(N3CC[C@H](Oc4cc(F)c(S(C)(=O)=O)cc4F)C3=O)CC2)n1 [Example 52, (S)-3-(2,5-difluoro-4-(methylsulfonyl)phenoxy)-1-(1-(3-isopropyl-1,2,4-thiadiazol-5-yl)piperidin-4-yl)pyrrolidin-2-one]
  cAMP production in HEK-293 cells: 24.6 nmol
  Fold over baseline: 3.9

## Cc1cc(O[C@H]2CCN(C3CCN(c4nc(C(C)C)ns4)CC3)C2=O)c(F)cc1Br [Example 57, (S)-3-(4-bromo-2-fluoro-5-methylphenoxy)-1-(1-(3-isopropyl-1,2,4-thiadiazol-5-yl)piperidin-4-yl)pyrrolidin-2-one]
  cAMP production in HEK-293 cells: 22.0 nmol
  Fold over baseline: 2.8

## COC(C)(C)c1nsc(N2CCC(N3CC[C@H](Oc4c(F)cc(S(C)(=O)=O)cc4F)C3=O)CC2)n1 [Example 40, (S)-3-(2,6-difluoro-4-(methylsulfonyl)phenoxy)-1-(1-(3-(2-methoxypropan-2-yl)-1,2,4-thiadiazol-5-yl)piperidin-4-yl)pyrrolidin-2-one]
  cAMP production in HEK-293 cells: 21.1 nmol
  Fold over baseline: 3.9

## CCS(=O)(=O)c1ccc(OC2CCN(C3CCN(c4nc(CC(C)C)ns4)CC3)C2=O)c(F)c1 (stereo not shown) [Example 68, 3-(4-(ethylsulfonyl)-2-fluorophenoxy)-1-(1-(3-isobutyl-1,2,4-thiadiazol-5-yl)piperidin-4-yl)pyrrolidin-2-one]
  cAMP production in HEK-293 cells: 14.5 nmol
  Fold over baseline: 3.1

## CC(C)Cc1nsc(N2CCC(N3CC[C@H](Oc4ccc(S(C)(=O)=O)cc4F)C3=O)CC2)n1 [Example 56, (S)-3-(2-fluoro-4-(methylsulfonyl)phenoxy)-1-(1-(3-isobutyl-1,2,4-thiadiazol-5-yl)piperidin-4-yl)pyrrolidin-2-one]
  cAMP production in HEK-293 cells: 17.4 nmol
  Fold over baseline: 3.4

## CC(C)c1nsc(N2CCC(N3CC[C@H](Oc4ccc(S(C)(=O)=O)cc4F)C3=O)CC2)n1 [Example 50, (S)-3-(2-fluoro-4-(methylsulfonyl)phenoxy)-1-(1-(3-isopropyl-1,2,4-thiadiazol-5-yl)piperidin-4-yl)pyrrolidin-2-one]
  cAMP production in HEK-293 cells: 15.1 nmol
  Fold over baseline: 5.6

## CS(=O)(=O)c1ccc(N[C@H]2CCCN(C3CCN(c4nc(-c5ccccc5)ns4)CC3)C2=O)c(F)c1 [Example 29, (S)-3-(2-fluoro-4-(methylsulfonyl)phenylamino)-1′-(3-phenyl-1,2,4-thiadiazol-5-yl)-[1,4′-bipiperidin]-2-one]
  cAMP production in HEK-293 cells: 7.3 nmol
  Fold over baseline: 2.2

## CC(C)c1nsc(N2CCC(N3CC[C@H](Nc4ccc(S(C)(=O)=O)c(Cl)c4)C3=O)CC2)n1 [Example 11, (S)-3-(3-chloro-4-(methylsulfonyl)phenylamino)-1-(1-(3-isopropyl-1,2,4-thiadiazol-5-yl)piperidin-4-yl)pyrrolidin-2-one]
  cAMP production in HEK-293 cells: 10.8 nmol
  Fold over baseline: 3.0

## CC(C)c1nsc(N2CCC(N3CCC(Cc4ccc(S(C)(=O)=O)cc4)C3=O)CC2)n1 (stereo not shown) [Example 92, 1-(1-(3-isopropyl-1,2,4-thiadiazol-5-yl)piperidin-4-yl)-3-(4-(methylsulfonyl)benzyl)pyrrolidin-2-one]
  cAMP production in HEK-293 cells: 18.4 nmol
  Fold over baseline: 2.8

## CC(C)c1nsc(N2CCC(N3CC[C@@H](Nc4ccc(S(=O)(=O)N(C)C)cc4F)C3=O)CC2)n1 [Example 13, (R)-3-fluoro-4-(1-(1-(3-isopropyl-1,2,4-thiadiazol-5-yl)piperidin-4-yl)-2-oxopyrrolidin-3-ylamino)-N,N-dimethylbenzenesulfonamide]
  cAMP production in HEK-293 cells: 25.2 nmol
  Fold over baseline: 3.4

## Cn1nccc1-c1nsc(N2CCC(N3CC[C@H](Oc4ccc(S(C)(=O)=O)cc4F)C3=O)CC2)n1 [Example 72, (S)-3-(2-fluoro-4-(methylsulfonyl)phenoxy)-1-(1-(3-(1-methyl-1H-pyrazol-5-yl)-1,2,4-thiadiazol-5-yl)piperidin-4-yl)pyrrolidin-2-one]
  cAMP production in HEK-293 cells: 10.6 nmol
  Fold over baseline: 2.9

## CC(C)c1nsc(N2CCC(N3CCC(Oc4ccc(C(=O)N(C)CCN)cc4F)C3=O)CC2)n1 (stereo not shown) [Example 80, N-(2-aminoethyl)-3-fluoro-4-(1-(1-(3-isopropyl-1,2,4-thiadiazol-5-yl)piperidin-4-yl)-2-oxopyrrolidin-3-yloxy)-N-methylbenzamide]
  cAMP production in HEK-293 cells: 16.1 nmol
  Fold over baseline: 2.8

## Cc1ncccc1-c1nsc(N2CCC(N3CC[C@H](Oc4ccc(S(C)(=O)=O)cc4F)C3=O)CC2)n1 [Example 71, (S)-3-(2-fluoro-4-(methylsulfonyl)phenoxy)-1-(1-(3-(2-methylpyridin-3-yl)-1,2,4-thiadiazol-5-yl)piperidin-4-yl)pyrrolidin-2-one]
  cAMP production in HEK-293 cells: 5.9 nmol
  Fold over baseline: 2.1

## Cc1nn(C)c(Oc2nsc(N3CCC(N4CC[C@H](Oc5ccc(S(C)(=O)=O)cc5F)C4=O)CC3)n2)c1C [Example 75, (S)-3-(2-fluoro-4-(methylsulfonyl)phenoxy)-1-(1-(3-(1,3,4-trimethyl-1H-pyrazol-5-yloxy)-1,2,4-thiadiazol-5-yl)piperidin-4-yl)pyrrolidin-2-one]
  cAMP production in HEK-293 cells: 6.9 nmol
  Fold over baseline: 2.7

## CCS(=O)(=O)c1ccc(NC2CCN(C3CCN(c4nc(C(C)C)ns4)CC3)C2=O)cc1F (stereo not shown) [Example 20, 3-(4-(ethylsulfonyl)-3-fluorophenylamino)-1-(1-(3-isopropyl-1,2,4-thiadiazol-5-yl)piperidin-4-yl)pyrrolidin-2-one]
  cAMP production in HEK-293 cells: 22.6 nmol
  Fold over baseline: 3.5

## CS(=O)(=O)c1ccc(N[C@H]2CCN(C3CCN(c4nc(C(F)(F)F)ns4)CC3)C2=O)c(F)c1 [Example 90, (S)-3-(2-fluoro-4-(methylsulfonyl)phenylamino)-1-(1-(3-(trifluoromethyl)-1,2,4-thiadiazol-5-yl)piperidin-4-yl)pyrrolidin-2-one]
  cAMP production in HEK-293 cells: 8.5 nmol
  Fold over baseline: 2.9

## CS(=O)(=O)c1cc(F)c(N[C@H]2CCN(C3CCN(c4nc(C(F)(F)F)ns4)CC3)C2=O)cc1F [Example 89, (S)-3-(2,5-difluoro-4-(methylsulfonyl)phenylamino)-1-(1-(3-(trifluoromethyl)-1,2,4-thiadiazol-5-yl)piperidin-4-yl)pyrrolidin-2-one]
  cAMP production in HEK-293 cells: 15.1 nmol
  Fold over baseline: 3.8

## Cc1cc(N[C@H]2CCN(C3CCN(c4nc(C(C)C)ns4)CC3)C2=O)c(F)cc1S(C)(=O)=O [Example 18, (S)-3-(2-fluoro-5-methyl-4-(methylsulfonyl)phenylamino)-1-(1-(3-isopropyl-1,2,4-thiadiazol-5-yl)piperidin-4-yl)pyrrolidin-2-one]
  cAMP production in HEK-293 cells: 20.1 nmol
  Fold over baseline: 3.4

## Cc1cc(O[C@H]2CCN(C3CCN(c4nc(C(C)C)ns4)CC3)C2=O)c(F)cc1C#N [Example 64, (S)-5-fluoro-4-(1-(1-(3-isopropyl-1,2,4-thiadiazol-5-yl)piperidin-4-yl)-2-oxopyrrolidin-3-yloxy)-2-methylbenzonitrile]
  cAMP production in HEK-293 cells: 30.8 nmol
  Fold over baseline: 3.5
